Laboratory results as given in patent US11066443B2 (Hoffmann-La Roche Inc., priority 2017, dated 2021).
pIC50: −log10 of the molar value. ≈ marks a conversion by molar mass, not a printed value.

Tested on: P. aeruginosa NCTC11454
Assay: Antimicrobial susceptibility testing: 50% growth inhibitory concentration (IC50) determination
Assay type: cell-based
Conditions: Pseudomonas aeruginosa, Iso-Sensitest broth, OD 600 nm every 20 minutes over 16h, growth inhibition during logarithmic growth
Method: The in vitro antimicrobial activity of the compounds was alternatively determined according to the following procedure: The assay used a 10-points Iso-Sensitest broth medium to measure quantitatively the in vitro activity of the compounds against P. aeruginosa NCTC11454. Stock compounds in DMSO were serially twofold diluted (e.g. range from 50 to 0.097 μM final concentration) in 384 wells microtiter plates and inoculated with 49 μl the bacterial suspension in Iso-Sensitest medium to have a final cell concentration of ˜5×10^(5) CFU/ml in a final volume/well of 50 ul/well. Microtiter plates were incubated at 35±2° C. Bacterial cell growth was determined with the measurement of optical density at λ=600 nm each 20 minutes over a time course of 16h. Growth inhibition was calculated during the logarithmic growth of the bacterial cells with determination of the concentration inhibiting 50% (IC50) and 90% (IC90) of the growth. Table 2 provides the 50% growth inhibitory concentrations (IC50) in micromoles per liter of the compounds of present invention obtained against P. aeruginosa NCTC11454.

Compound	pIC50
CN1C(=O)[C@H](CCCCN)NC(=O)[C@H](CCCN)NCc2ccccc2Sc2cc(Cl)ccc2CNC(=O)[C@@H]1Cc1c[nH]c2ccccc12 [Example 2, (12S,15S,18S)-15-(4-Amino-butyl)-18-(3-amino-propyl)-5-chloro-12-(1H-indol-3-ylmethyl)-13-methyl-2-thia-10,13,16,19-tetraaza-tricyclo[19.4.0.0*3,8*]pentacosa-1(21),3,5,7,22,24-hexaene-11,14,17-trione]	< 4.30
Cc1[nH]c2ccccc2c1C[C@H]1C(=O)NCc2cc(Cl)ccc2Sc2ccccc2CN[C@@H](CCCN)C(=O)N[C@@H](CCCCN)C(=O)N1C [Example 15, (12S,15S,18S)-15-(4-Amino-butyl)-18-(3-amino-propyl)-6-chloro-13-methyl-12-(2-methyl-1H-indol-3-ylmethyl)-2-thia-10,13,16,19-tetraaza-tricyclo[19.4.0.0*3,8*]pentacosa-1(21),3,5,7,22,24-hexaene-1,14,17-trione]	4.50
CN1C(=O)[C@H](CCCCN)NC(=O)[C@H](CCCN)NCc2cccnc2Sc2c(Cl)ccc(-c3ccc(N4CCNCC4)cc3)c2CNC(=O)[C@@H]1Cc1c[nH]c2ccccc12 [Example 55, (11S,14S,17S)-14-(4-Amino-butyl)-11-(3-amino-propyl)-25-chloro-17-(1H-indol-3-ylmethyl)-16-methyl-22-(4-piperazin-1-yl-phenyl)-2-thia-4,10,13,16,19-pentaaza-tricyclo[19.4.0.0*3,8*]pentacosa-1(25),3(8),4,6,21,2-hexaene-12,15,18-trione]	4.57

Tested on: P. aeruginosa ATCC27853
Assay: Antimicrobial susceptibility testing: microbroth minimum inhibitory concentration (MIC) determination
Assay type: cell-based
Conditions: Pseudomonas aeruginosa, CLSI microbroth dilution in CAMHB, read after 20 hours, lowest concentration inhibiting >=80% of growth
Method: The in vitro antimicrobial activity of the compounds was determined through microbroth minimum inhibitory concentration (MIC) methodology performed according to the Clinical and Laboratory Standard Institute guidelines (CLSI—M07-A9 Jan. 2012. Methods for Dilution Antimicrobial Susceptibility Tests for Bacteria That Grow Aerobically; Approved Standard—Ninth Edition, Clinical and Laboratory Standards Institue, Wayne/PA, US and the CLSI—M100-S24 Jan. 2014. Performance Standards for Antimicrobial Susceptibility Testing; Approved Standard—Fourth Informational Supplement, Clinical and Laboratory Standards Institue, Wayne/PA, US).
The compound stock solution was freshly prepared at 10× the required top concentration for the MIC determination, i.e. at 1280 mg/L, by reconstitution of the dry compound in 50:50 water:DMSO.
Polystyrene non-treated 96 wells microtiter plates were used for preparing panel containing compound serial twofold diluted at two times the final testing concentration (e.g. range from 64 to 0.06 μg/ml) in cation adjusted Mueller Hinton broth medium (CAMHB).
Inoculum was prepared by the “direct colony suspension method”. Colonies of P. aeruginosa ATCC27853 or clinical isolates were suspended in saline solution and adjusted to 0.5 McFarland, diluted 100 times in CAMHB broth and 50 μl added to each well (final concentration of cells ˜5×10^(5) CFU/ml and Final volume/well of 100 μl). Microtiter plates were sealed and incubated at 35±2° C.
MICs values were read after 20 hours of incubation and recorded as the lowest concentration of the antimicrobial that inhibits more or equal to 80% of growth of the organism as detected by the unaided eye and using a microtiter plate optical density reader (OD 600 nm).
Table 1 provides the minimum inhibitory concentration (MIC) in microgram per milliliter of the compounds of present invention obtained against the P. aeruginosa ATCC27853 (Table 1).

Compound	MIC [µg/mL]
CN1C(=O)[C@H](CCCCN)NC(=O)[C@H](CCCN)NCc2ccccc2Sc2cc(Cl)ccc2CNC(=O)[C@@H]1Cc1c[nH]c2ccccc12 [Example 2, (12S,15S,18S)-15-(4-Amino-butyl)-18-(3-amino-propyl)-5-chloro-12-(1H-indol-3-ylmethyl)-13-methyl-2-thia-10,13,16,19-tetraaza-tricyclo[19.4.0.0*3,8*]pentacosa-1(21),3,5,7,22,24-hexaene-11,14,17-trione]	32 (≈ 45.4 µM)
CN1C(=O)[C@H](CCCCN)NC(=O)[C@H](CCCN)NCc2ccccc2Sc2c(Cl)cccc2CNC(=O)[C@@H]1Cc1c[nH]c2ccccc12 [Example 3, (12S,15S,18S)-15-(4-Amino-butyl)-18-(3-amino-propyl)-4-chloro-12-(1H-indol-3-ylmethyl)-13-methyl-2-thia-10,13,16,19-tetraaza-tricyclo[19.4.0.0*3,8*]pentacosa-1(21),3,5,7,22,24-hexaene-11,14,17-trione]	> 64
CN1C(=O)[C@H](CCCCN)NC(=O)[C@H](CCCN)NCc2ccccc2Sc2c(Cl)cc(C(F)(F)F)cc2CNC(=O)[C@@H]1Cc1c[nH]c2ccccc12 [Example 11, (12S,15S,18S)-15-(4-Amino-butyl)-18-(3-amino-propyl)-4-chloro-12-(1H-indol-3-ylmethyl)-13-methyl-6-trifluoromethyl-2-thia-10,13,16,19-tetraaza-tricyclo[19.4.0.0*3,8*]pentacosa-1(25),3,5,7,21,23-hexaene-11,14,17-trione]	16 (≈ 20.7 µM)
CN1C(=O)[C@H](CCCCN)NC(=O)[C@H](CCCN)NCc2cc(F)ccc2Sc2c(Cl)cc(Cl)cc2CNC(=O)[C@@H]1Cc1c[nH]c2ccccc12 [Example 12, (12S,15S,18S)-15-(4-Amino-butyl)-18-(3-amino-propyl)-4,6-dichloro-23-fluoro-12-(1H-indol-3-ylmethyl)-13-methyl-2-thia-10,13,16,19-tetraaza-tricyclo[19.4.0.0*3,8*]pentacosa-1(25),3,5,7,21,23-hexaene-11,14,17-trione]	32 (≈ 42.3 µM)
CN1C(=O)[C@H](CCCCN)NC(=O)[C@H](CCCN)NCc2ccccc2Sc2c(cc(Cl)cc2C(F)(F)F)CNC(=O)[C@@H]1Cc1c[nH]c2ccccc12 [Example 13, (12S,15S,18S)-15-(4-Amino-butyl)-18-(3-amino-propyl)-6-chloro-12-(1H-indol-3-ylmethyl)-13-methyl-4-trifluoromethyl-2-thia-10,13,16,19-tetraaza-tricyclo[19.4.0.0*3,8*]pentacosa-1(25),3,5,7,21,23-hexaene-11,14,17-trione]	16 (≈ 20.7 µM)
Cc1[nH]c2ccccc2c1C[C@H]1C(=O)NCc2cc(Cl)ccc2Sc2ccccc2CN[C@@H](CCCN)C(=O)N[C@@H](CCCCN)C(=O)N1C [Example 15, (12S,15S,18S)-15-(4-Amino-butyl)-18-(3-amino-propyl)-6-chloro-13-methyl-12-(2-methyl-1H-indol-3-ylmethyl)-2-thia-10,13,16,19-tetraaza-tricyclo[19.4.0.0*3,8*]pentacosa-1(21),3,5,7,22,24-hexaene-1,14,17-trione]	32 (≈ 44.5 µM)
Cc1cccc2c1Sc1ccccc1CN[C@@H](CCCN)C(=O)N[C@@H](CCCCN)C(=O)N(C)[C@@H](Cc1c(C)[nH]c3ccccc13)C(=O)NC2 [Example 16, (12S,15S,18S)-15-(4-Amino-butyl)-18-(3-amino-propyl)-4,13-dimethyl-12-(2-methyl-1H-indol-3-ylmethyl)-2-thia-10,13,16,19-tetraaza-tricyclo[19.4.0.0*3,8*]pentacosa-1(21),3,5,7,22,24-hexaene-11,14,17-trione]	32 (≈ 45.8 µM)
Cc1[nH]c2ccccc2c1C[C@H]1C(=O)NCc2cc(Cl)cc(Cl)c2Sc2ccccc2CN[C@@H](CCCN)C(=O)N[C@@H](CCCCN)C(=O)N1C [Example 17, (12S,15S,18S)-15-(4-Amino-butyl)-18-(3-amino-propyl)-4,6-dichloro-13-methyl-12-(2-methyl-1H-indol-3-ylmethyl)-2-thia-10,13,16,19-tetraaza-tricyclo[19.4.0.0*3,8*]pentacosa-1(21),3,5,7,22,24-hexaene-1,14,17-trione]	32 (≈ 42.5 µM)
CCc1ccc2c(c1)CNC(=O)[C@H](Cc1c[nH]c3ccccc13)N(C)C(=O)[C@H](CCCCN)NC(=O)[C@H](CCCN)NCc1ccccc1S2 [Example 18, (12S,15S,18S)-15-(4-Amino-butyl)-18-(3-amino-propyl)-6-ethyl-12-(1H-indol-3-ylmethyl)-13-methyl-2-thia-10,13,16,19-tetraaza-tricyclo[19.4.0.0*3,8*]pentacosa-1(25),3,5,7,21,23-hexaene-11,14,17-trione]	32 (≈ 45.8 µM)
CN1C(=O)[C@H](CCCCN)NC(=O)[C@H](CCCN)NCc2ccccc2Sc2ccc(-c3ccccc3)cc2CNC(=O)[C@@H]1Cc1c[nH]c2ccccc12 [Example 19, (12S,15S,18S)-15-(4-Amino-butyl)-18-(3-amino-propyl)-12-(1H-indol-3-ylmethyl)-13-methyl-6-phenyl-2-thia-10,13,16,19-tetraaza-tricyclo[19.4.0.0*3,8*]pentacosa-1(25),3,5,7,21,23-hexaene-11,14,17-trione]	32 (≈ 42.9 µM)
CN1C(=O)[C@H](CCCCN)NC(=O)[C@H](CCCN)NCc2ccccc2Sc2ccc(C(C)(C)C)cc2CNC(=O)[C@@H]1Cc1c[nH]c2ccccc12 [Example 20, (12S,15S,18S)-15-(4-Amino-butyl)-18-(3-amino-propyl)-6-tert-butyl-12-(1H-indol-3-ylmethyl)-13-methyl-2-thia-10,13,16,19-tetraaza-tricyclo[19.4.0.0*3,8*]pentacosa-1(25),3,5,7,21,23-hexaene-11,14,17-trione]	32 (≈ 44.1 µM)
CC(C)c1ccc2c(c1)CNC(=O)[C@H](Cc1c[nH]c3ccccc13)N(C)C(=O)[C@H](CCCCN)NC(=O)[C@H](CCCN)NCc1ccccc1S2 [Example 21, (12S,15S,18S)-15-(4-Amino-butyl)-18-(3-amino-propyl)-12-(1H-indol-3-ylmethyl)-6-isopropyl-13-methyl-2-thia-10,13,16,19-tetraaza-tricyclo[19.4.0.0*3,8*]pentacosa-1(25),3,5,7,21,23-hexaene-11,14,17-trione]	32 (≈ 44.9 µM)
CN1C(=O)[C@H](CCCCN)NC(=O)[C@H](CCCN)NCc2cccnc2Sc2c(cc(C(F)(F)F)cc2C(F)(F)F)CNC(=O)[C@@H]1Cc1c[nH]c2ccccc12 [Example 23, (11S,14S,17S)-14-(4-Amino-butyl)-11-(3-amino-propyl)-17-(1H-indol-3-ylmethyl)-16-methyl-23,25-bis-trifluoromethyl-2-thia-4,10,13,16,19-pentaaza-tricyclo[19.4.0.0*3,8*]pentacosa-1(25),3,5,7,21,23-hexaene-12,15,18-trione]	32 (≈ 39.7 µM)
CN1C(=O)[C@H](CCCCN)NC(=O)[C@H](CCCN)NCc2cccnc2Sc2c(Cl)ccc(-c3ccccc3)c2CNC(=O)[C@@H]1Cc1c[nH]c2ccccc12 [Example 29, (11S,14S,17S)-14-(4-Amino-butyl)-11-(3-amino-propyl)-25-chloro-17-(1H-indol-3-ylmethyl)-16-methyl-22-phenyl-2-thia-4,10,13,16,19-pentaaza-tricyclo[19.4.0.0*3,8*]pentacosa-1(25),3(8),4,6,21,23-hexaene-12,15,18-trione]	32 (≈ 41 µM)
